Read-outs that look alike come from different tables or passages of the source.
Assays:
[1] = target: T1, OATP1B3 (Homo sapiens, UniProt Q9NPD5); design: expressed in transfected cells; host or cells: A431 cells; conditions: public data sources; cited from earlier work
T1 sequence (Q9NPD5 1-702): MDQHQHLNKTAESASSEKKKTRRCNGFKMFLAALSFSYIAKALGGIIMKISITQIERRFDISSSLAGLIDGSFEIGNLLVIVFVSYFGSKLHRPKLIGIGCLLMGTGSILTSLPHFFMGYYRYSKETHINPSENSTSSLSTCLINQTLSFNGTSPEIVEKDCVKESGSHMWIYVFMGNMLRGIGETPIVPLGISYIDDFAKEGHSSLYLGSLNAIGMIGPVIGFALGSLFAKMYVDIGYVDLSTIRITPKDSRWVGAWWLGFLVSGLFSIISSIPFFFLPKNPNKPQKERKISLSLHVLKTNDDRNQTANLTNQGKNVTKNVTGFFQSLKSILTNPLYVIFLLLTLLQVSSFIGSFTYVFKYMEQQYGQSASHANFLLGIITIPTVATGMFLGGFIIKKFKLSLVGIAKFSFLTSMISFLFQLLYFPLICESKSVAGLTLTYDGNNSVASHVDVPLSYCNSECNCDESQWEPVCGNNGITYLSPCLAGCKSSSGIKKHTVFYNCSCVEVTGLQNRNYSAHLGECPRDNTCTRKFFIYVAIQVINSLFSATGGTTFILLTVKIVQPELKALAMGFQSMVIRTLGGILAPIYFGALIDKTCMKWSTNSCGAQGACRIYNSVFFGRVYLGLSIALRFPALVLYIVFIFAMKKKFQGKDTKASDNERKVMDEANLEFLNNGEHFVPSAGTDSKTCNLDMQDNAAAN

[2] = target: T2, OATP1B1 (Homo sapiens, UniProt Q9Y6L6); conditions: cited from earlier work; for median bioactivity value: OATP1B1, public data sources
T2 sequence (Q9Y6L6 1-691): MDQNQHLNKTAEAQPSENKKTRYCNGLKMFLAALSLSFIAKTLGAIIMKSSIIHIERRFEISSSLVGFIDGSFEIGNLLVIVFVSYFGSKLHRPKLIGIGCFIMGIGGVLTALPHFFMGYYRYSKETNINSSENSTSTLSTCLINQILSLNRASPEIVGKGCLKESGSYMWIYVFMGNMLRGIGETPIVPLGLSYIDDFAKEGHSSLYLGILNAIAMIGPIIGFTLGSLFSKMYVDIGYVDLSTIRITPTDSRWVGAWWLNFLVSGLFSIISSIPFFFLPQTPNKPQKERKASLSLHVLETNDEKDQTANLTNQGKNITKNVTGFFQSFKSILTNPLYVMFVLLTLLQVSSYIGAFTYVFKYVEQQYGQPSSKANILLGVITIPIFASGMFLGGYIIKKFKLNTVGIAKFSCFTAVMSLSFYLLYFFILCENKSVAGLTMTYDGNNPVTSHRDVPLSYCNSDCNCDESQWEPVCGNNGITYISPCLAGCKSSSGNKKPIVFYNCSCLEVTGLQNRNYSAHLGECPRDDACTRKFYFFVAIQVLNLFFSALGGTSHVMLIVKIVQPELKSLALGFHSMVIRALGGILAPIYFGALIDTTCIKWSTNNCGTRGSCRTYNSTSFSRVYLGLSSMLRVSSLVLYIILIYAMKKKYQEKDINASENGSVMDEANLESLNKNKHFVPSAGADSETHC

[3] = target: T3, OATP2B1 (Homo sapiens, UniProt O94956); design: method as in earlier work; conditions: Figure S14; public data sources; cited from earlier work
T3 sequence (O94956 1-709): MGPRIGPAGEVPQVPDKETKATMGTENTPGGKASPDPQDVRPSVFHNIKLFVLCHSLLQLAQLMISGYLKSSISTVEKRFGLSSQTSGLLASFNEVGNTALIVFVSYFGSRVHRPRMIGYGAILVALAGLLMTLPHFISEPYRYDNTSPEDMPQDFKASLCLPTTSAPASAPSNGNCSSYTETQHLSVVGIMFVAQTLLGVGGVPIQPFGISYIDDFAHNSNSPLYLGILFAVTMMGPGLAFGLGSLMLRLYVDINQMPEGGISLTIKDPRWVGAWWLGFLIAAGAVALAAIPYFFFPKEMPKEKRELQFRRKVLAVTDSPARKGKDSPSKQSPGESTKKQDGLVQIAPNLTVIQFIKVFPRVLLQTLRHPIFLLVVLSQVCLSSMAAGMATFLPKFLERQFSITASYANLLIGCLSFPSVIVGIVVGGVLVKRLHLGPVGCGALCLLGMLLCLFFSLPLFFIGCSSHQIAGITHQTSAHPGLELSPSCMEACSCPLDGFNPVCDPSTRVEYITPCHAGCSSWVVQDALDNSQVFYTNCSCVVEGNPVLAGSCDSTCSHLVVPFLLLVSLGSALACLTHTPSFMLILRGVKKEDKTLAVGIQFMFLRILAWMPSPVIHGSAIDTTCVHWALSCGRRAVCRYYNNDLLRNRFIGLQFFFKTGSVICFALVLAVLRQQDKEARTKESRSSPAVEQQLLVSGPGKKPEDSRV

[4] = target: T2, OATP1B1; assay: Pyranine uptake inhibition in A431 cells overexpressing OATP1B1; conditions: for activity on OATP1B1 and OATP1B3 (in words): statement covers both OATP1B1 and OATP1B3
Protocol: IC50 values were calculated based on transport inhibition measurements (see below) by Hill1 fit, using the Origin Pro8.6 software (OriginLab Corporation, Northampton, MA, US).
(§1) 20 mM stocks in DMSO were stored for further usage at −20 °C. A431 cells overexpressing OATPs, OATP1B1, OATP1B3, or OATP2B1 or mock transfected controls were generated previously.[60] A431 cells were maintained in DMEM medium (Thermo Fischer Scientific, Waltham, MA, US) supplemented with 10% fetal bovine serum, 2 mM L-glutamine, 100 units/mL penicillin, and 100 μg/mL streptomycin at 37 °C with 5% CO2. […] The uptake of pyranine was measured on microplates based on the method developed by us previously.[60],[61]
Briefly, 1 day prior to the uptake measurement cells (8 × 10^4 cells/well in 200 μL DMEM) were seeded on 96-well plates. […] OATP-dependent transport was calculated by extracting fluorescence measured in mock transfected cells. Transport activity was calculated based on the fluorescence signal in the absence (100%) of the tested compounds. Experiments were repeated at least three times on cells deriving from different passages.
(§2) IC50 values were calculated by Hill1 fit, using the (OriginLab Corporation, Northampton, MA, US).

[5] = target: T3, OATP2B1; assay: Pyranine uptake inhibition in A431 cells overexpressing OATP2B1
Protocol: (§3) Compounds with measured bioactivities (Km, IC50, Ki, and EC50 bioactivity end points or percentage inhibition values) on OATP1B1 (n = 440 compounds), OATP1B3 (n = 936 compounds), or OATP2B1 (n = 173 compounds) were collected from the open domain by utilizing a KNIME workflow, which collects data from five independent data sources as described in Tuerkova et al.[15] […] IC50 values were calculated based on transport inhibition measurements (see below) by Hill1 fit, using the Origin Pro8.6 software (OriginLab Corporation, Northampton, MA, US).
as §1
(§4) Briefly, 1 day prior to the uptake measurement cells (8 × 10^4 cells/well in 200 μL DMEM) were seeded on 96-well plates. On the following day, the medium was removed, and the cells were washed three times with 200 μL of phosphate-buffered saline (PBS, pH 7.4) and preincubated with 50 μL of uptake buffer (125 mM NaCl, 4.8 mM KCl, 1.2 mM CaCl2, 1.2 mM KH2PO4, 12 mM MgSO4, 25 mM MES (2-(N-morpholino)ethanesulfonic acid, and 5.6 mM glucose, pH 5.5) with or without increasing concentrations of the tested compounds. The reaction was started by the addition of 50 μL of uptake buffer containing pyranine in a final concentration of 10 μM (OATP1B1) or 20 μM (OATP1B3 and OATP2B1). Cells were incubated with the dye at 37 °C for 15 min (OATP1B1 and OATP2B1) or 30 min (OATP1B3), after which the supernatant was removed, and the cells were washed three times with 200 μL of ice-cold PBS. Fluorescence (in 200 μL of PBS/well) was determined in an Enspire plate reader (PerkinElmer, Waltham, MA, Ex/Em = 403/517 nm). OATP-dependent transport was calculated by extracting fluorescence measured in mock transfected cells. Transport activity was calculated based on the fluorescence signal in the absence (100%) of the tested compounds. Experiments were repeated at least three times on cells deriving from different passages.
as §2

[6] = target: T1, OATP1B3; assay: Pyranine uptake inhibition in A431 cells overexpressing OATP1B3
Protocol: as §3, §1, §4, §2

COC(=O)CC[C@@H](C)[C@H]1CC[C@H]2[C@@H]3[C@H](O)C[C@@H]4C[C@H](O)CC[C@]4(C)[C@H]3C[C@H](O)[C@]12C [cholic acid methyl ester]
median bioactivity value [1]: 0.13 µM | median bioactivity value [2]: 0.20 µM

C[C@]12CC[C@@H]3c4ccc(OS(=O)(=O)O)cc4CC[C@H]3[C@@H]1CCC2=O [E-3-S, estrone-3-sulfate]
IC50 [3]: 10 µM | median bioactivity value [2]: 0.450 µM | transporter selectivity (in words) ([2]; OATP1B1 vs OATP1B3, known from literature): OATP1B1 selective

C[C@H](CCC(=O)O)[C@H]1CC[C@H]2[C@@H]3CC[C@@H]4C[C@H](O)CC[C@]4(C)[C@H]3CC[C@]12C [lithocholate]
median bioactivity value [1]: 6.807 µM | median bioactivity value [2]: 0.918 µM

C[C@@]12CCC3c4ccc(OCc5ccccc5)cc4CCC3C1CCC2=O (stereo partly shown) [Compound 3]
IC50 [4]: > 50 µM | IC50 [5]: 7.17 µM | IC50 [6]: > 50 µM

C[C@@]12CCC3c4cc(I)c(O)cc4CCC3C1CCC2=O (stereo partly shown) [Compound 7]
IC50 [4]: 22.5 µM | IC50 [5]: 0.6 µM | selectivity for OATP2B1 (in words) ([5]; vs OATP1B1 and OATP1B3): selective | IC50 [6]: 18.2 µM

C[C@@]12CCC3c4ccc(O)c(Br)c4CCC3C1CCC2=O (stereo partly shown) [Compound 6]
IC50 [4]: 4.07 µM | activity on OATP1B1 and OATP1B3 (in words) [4]: weak to borderline inhibitory activity | IC50 [5]: 2.97 µM | IC50 [6]: 9.2 µM

CCOP(=O)(OCC)c1cc2c(cc1OC)CCC1C2CC[C@@]2(C)C(=O)CCC12 (stereo partly shown) [Compound 15]
IC50 [4]: 10.1 µM | activity on OATP1B1 and OATP1B3 (in words) [4]: rather inactive | IC50 [5]: 2.96 µM | fold decrease in activity compared with compound 11 ([5]; OATP2B1, 3-hydroxy and 3-methoxy analogs vs 3-benzyloxy compound 11): approximately 17 fold | IC50 [6]: 9.5 µM

C[C@@]12CCC3c4ccc(O)cc4CCC3C1CCC2=O (stereo partly drawn) [Compound 1, 13α-estrone]
IC50 [5]: > 50 µM | IC50 [6]: > 50 µM

COc1ccc2c(c1)CCC1C2CC[C@@]2(C)C(=O)CCC12 (stereo partly shown) [Compound 2]
IC50 [4]: > 50 µM | IC50 [5]: 5.41 µM | IC50 [6]: > 50 µM
